Earlier results as cited in patent US20040002079A1.

Settings: steady state, red cells vs plasma, different individuals

In the case of [Li] [lithium, Lithium], the “lithium ratio [Li]cell/[Li]pl” value is given as 0.2 to 0.8.
